In ChEMBL document CHEMBL1154398, “Synthesis and activity in enhancing long-term potentiation (LTP) of clausenamide stereoisomers” (2009) one finds Activity data, which are given here for 16 compounds.

Common to all, as to type: functional
Experiment [1] is described as follows: Nootropic activity in hippocampus assessed as increase in amplitude of population spikes after 60 mins by long-term potentiation enhancement assay relative to control. Also on record: concentration or dose not given beside the values.
Experiment [2] in a line: Nootropic activity in hippocampus assessed as increase in amplitude of population spikes after 30 mins by long-term potentiation enhancement assay relative to control. Also on record: concentration or dose not given beside the values.
The nature of experiment [3]: Nootropic activity in hippocampus assessed as increase in amplitude of population spikes after 15 mins by long-term potentiation enhancement assay relative to control. Also on record: concentration or dose not given beside the values.
The nature of experiment [4]: Nootropic activity in hippocampus assessed as increase in amplitude of population spikes for > 40 mins by long-term potentiation enhancement assay relative to control.

With `CN1C(=O)[C@H](O)[C@H](c2ccccc2)[C@@H]1[C@H](O)c1ccccc1`, the figures for the Activity in experiment [1], in experiment [2] and in experiment [3] were 5.4%, 0.3% and 7.2%, respectively.

For the compound `CN1C(=O)[C@H](O)[C@@H](c2ccccc2)[C@@H]1[C@H](O)c1ccccc1`, the Activity was -9.4% in experiment [1], -5.3% in experiment [2] and 4.7% in experiment [3].

Regarding `CN1C(=O)[C@@H](O)[C@H](c2ccccc2)[C@H]1[C@@H](O)c1ccccc1`, the values for the Activity in experiment [1], in experiment [2] and in experiment [3] were 18.2%, -8.1% and -9.4%, respectively.

`CN1C(=O)[C@H](O)[C@H](c2ccccc2)[C@H]1[C@H](O)c1ccccc1`: the Activity was 92.3% in experiment [1], 50.9% in experiment [2], over 30% in experiment [4] and 35% in experiment [3].

In the case of `CN1C(=O)[C@H](O)[C@H](c2ccccc2)[C@@H]1[C@@H](O)c1ccccc1`, the Activity was 105.4% in experiment [1], 41.2% in experiment [2], over 30% in experiment [4] and 26.2% in experiment [3].

Consider `CN1C(=O)[C@@H](O)[C@@H](c2ccccc2)[C@H]1[C@@H](O)c1ccccc1`, for which the Activity in experiment [1] stood at 9.6%; in experiment [2], 9.7%; in experiment [3], 1.7%.

Turning to `CN1C(=O)[C@H](O)[C@@H](c2ccccc2)[C@@H]1[C@@H](O)c1ccccc1` [(+)NEOCLAUSENAMIDE], the Activity is recorded as -2.5% in experiment [1], -29.1% in experiment [2] and -0.7% in experiment [3].

With `CN1C(=O)[C@@H](O)[C@H](c2ccccc2)[C@@H]1[C@H](O)c1ccccc1`, the Activity in experiment [1] is listed as 17.3%; in experiment [2], -8.8%; in experiment [3], -2.2%.

With `CN1C(=O)[C@@H](O)[C@H](c2ccccc2)[C@H]1[C@H](O)c1ccccc1`, the Activity in experiment [2] is recorded as -34.5%; in experiment [3], -18.2%.

Take `CN1C(=O)[C@@H](O)[C@@H](c2ccccc2)[C@H]1[C@H](O)c1ccccc1`: the figures for the Activity in experiment [1], in experiment [2] and in experiment [3] were 22.5%, 2.9% and -12.7%, respectively.

Turning to `CN1C(=O)[C@H](O)[C@@H](c2ccccc2)[C@H]1[C@@H](O)c1ccccc1`, the Activity in experiment [1] is 107.8%; in experiment [2], 47.5%; in experiment [4] it was over 30%; in experiment [3] it was 36%.

In the case of `CN1C(=O)[C@H](O)[C@H](c2ccccc2)[C@H]1[C@@H](O)c1ccccc1`, the Activity is given as 21.7% in experiment [1], 10.1% in experiment [2] and -3% in experiment [3].

As to `CN1C(=O)[C@H](O)[C@@H](c2ccccc2)[C@H]1[C@H](O)c1ccccc1` [(+)CLAUSENAMIDE], the Activity in experiment [1] is 6.4%; in experiment [2], 10.1%; in experiment [3], -9.4%.

With `CN1C(=O)[C@@H](O)[C@@H](c2ccccc2)[C@@H]1[C@@H](O)c1ccccc1`, the Activity was -5.1% in experiment [1], -1.8% in experiment [2] and -5.9% in experiment [3].

For the compound `CN1C(=O)[C@@H](O)[C@H](c2ccccc2)[C@@H]1[C@@H](O)c1ccccc1`, the values for the Activity in experiment [1], in experiment [2] and in experiment [3] were 58.1%, 38.5% and 31.8%, respectively.

Regarding `CN1C(=O)[C@@H](O)[C@@H](c2ccccc2)[C@@H]1[C@H](O)c1ccccc1`, the results for the Activity in experiment [1], in experiment [2] and in experiment [3] were -15.4%, -11.9% and -11.5%, respectively.
